Results reported in US20260183303A1, “PDK1 REGULATORY COMPOUND AND COMPOSITION CONTAINING THE SAME” (PROVIBIO CO., LTD., priority 2024, published 2026).
Where a name gives a salt, the structure may show the parent alone.

Tests used:
[1] = tested on: Human B Lymphocyte cell line, SU-DHL-8; experiment: Relative cell viability (CCK-8), SU-DHL-8; assay type: cell-based; conditions: for viability at 1 µM / viability at 10 µM / viability at 30 µM / viability at 50 µM: Homo sapiens, SU-DHL-8, 48 h; for viability at 1 µM: read-out: Relative cell viability (%), SU-DHL-8, 1 μM, untreated cells (DMSO) = 100%; for viability at 10 µM: read-out: Relative cell viability (%), SU-DHL-8, 10 μM, untreated cells (DMSO) = 100%; for viability at 30 µM: read-out: Relative cell viability (%), SU-DHL-8, 30 μM, untreated cells (DMSO) = 100%; for viability at 50 µM: read-out: Relative cell viability (%), SU-DHL-8, 50 μM, untreated cells (DMSO) = 100%; for Relative cell viability (%): 48 hours, untreated cells (DMSO) = 100%
Experimental: Human-derived B lymphoma cell line SU-DHL-8 (Cat. #CRL-2961) purchased from ATCC was cultured in RPMI-1640 medium containing […], 100 U/mL penicillin, and 100 μg/mL streptomycin.
The cell culture medium was then harvested, centrifuged at 1,300 rpm for 5 minutes, and the supernatant was removed. The cells were resuspended in the same medium and dispensed into a 96-well plate (Costar 96-well cell culture plate, Corning) at 90 μL per well, resulting in the conditions specified in Table 5.
Then, 10 μL of CCK-8 was added to each well, and the plates were incubated again at 37° C. in a 5% CO2 incubator for 4 hours.
In other words, when the survival rate of untreated cells (DMSO) is set at 100%, the relative cell survival rate in each group treated with the drug at different concentrations is indicated.

[2] = tested on: T cells isolated from mouse spleens; experiment: T cell proliferation inhibition (CFSE flow cytometry, anti-CD3/anti-CD28 activation); assay type: cell-based, C57BL/6 mice; conditions: mouse spleen T cells, CD3/CD28 activated, cultured three days; for inhibition at 0.01 µM / inhibition at 0.1 µM / inhibition at 1 µM / inhibition at 10 µM / inhibition at 30 µM / inhibition at 50 µM: Mus musculus, T-cell, 72 h, read-out: Proliferation inhibition rate (%)
Experimental: To verify the T cell proliferation inhibitory effect of the compounds according to the present invention, the following experiment was performed based on flow cytometry analysis using carboxyfluorescein diacetate succinimidyl ester (CFSE), a fluorescent dye that binds to intracellular molecules via covalent bonds.
Spleens were extracted from 7-week-old C57BL/6 mice, ground, and then separated into single cells using a strainer ([…], SPL). Red blood cells were removed using ACK (Ammonium-Chloride-Potassium) lysis buffer to isolate white blood cells.
Finally, using a MACS Magnetic Stand and LS column, T cells were isolated from the spleen.
The T cells isolated from the spleen were resuspended in 1 mL of free medium (RPMI-1640+200 U/mL penicillin+200 μg/mL streptomycin), and 0.3 μL of CFSE (10 mM) was added. The mixture was incubated at 37° C. for 5 minutes.
Free medium (10 mL) was added to stop the reaction, and the cells were centrifuged to obtain the cell pellet.
RPMI 1640 medium containing 10% FBS, 100 U/mL penicillin, 100 μg/mL streptomycin, and resuspended the cells. The cells were then seeded into a 96-well plate at a density of 2×10^5 cells per well and activated with CD3 and CD28 antibodies ([…]) to activate T cells.
The compound diluted in DMSO was added at concentrations of 10 nM, 100 nM, 1 μM, […], 30 μM, and 50 µM, with three wells per concentration, and cultured at 37° C. and 5% CO2 for three days. The cells were then analyzed using a FACS Canto instrument.
The proliferation inhibition rate (%) was calculated using the following formula: […]

Structure (SMILES) | viability at 1 µM [1] [%] | viability at 10 µM [1] [%] | viability at 30 µM [1] [%] | viability at 50 µM [1] [%] | inhibition at 0.01 µM ([2]; 10 nM) [%] | inhibition at 0.1 µM ([2]; 100 nM) [%] | inhibition at 1 µM ([2]; 1 μM) [%] | inhibition at 10 µM ([2]; 10 μM) [%] | inhibition at 30 µM ([2]; 30 μM) [%] | inhibition at 50 µM ([2]; 50 μM) [%] | Relative cell viability (%) ([1]; SU-DHL-8, 1 μM) | Proliferation inhibition rate (%) ([2]; 100 nM) | Proliferation inhibition rate (%) ([2]; 1 μM) | Proliferation inhibition rate (%) ([2]; 10 μM) | Proliferation inhibition rate (%) ([2]; 30 μM) | Proliferation inhibition rate (%) ([2]; 50 μM) | Relative cell viability (%) ([1]; SU-DHL-8, 30 μM) | Relative cell viability (%) ([1]; SU-DHL-8, 50 μM) | Proliferation inhibition rate (%) ([2]; 10 nM) | Relative cell viability (%) ([1]; SU-DHL-8, 10 μM)
CC(C)(C)OC(=O)N[C@H]1CCN(CCCCCCCCCCCCNC(=O)c2cccnc2N)C1 [Compound 49, tert-Butyl(S)-(1-(12-(2-aminonicotinamido)dodecyl)pyrrolidin-3-yl)carbamate] | 8.93 | 8.02 | 7.48 | 4.09 | -22.6 | 100 | 100 | 100 | 100 | 100 | – | – | – | – | – | – | – | – | – | –
Cl.Nc1ncccc1C(=O)NCCCCCCCCCCCCN1CC[C@H](N)C1 [Compound 50, (S)-2-Amino-N-(12-(3-aminopyrrolidin-1-yl)dodecyl) nicotinamide hydrochloride] | – | – | – | – | – | – | – | – | – | – | 9.20 | 100.00 | 100.00 | 100.00 | 100.00 | 100.00 | – | – | – | –
Cc1ccc(OC2CCN(CCCCCCCCCCCCNC(=O)c3cccnc3N)CC2)cc1 [Compound 51, 2-Amino-N-(12-(4-(p-tolyloxy)piperidin-1-yl)dodecyl) nicotinamide] | – | – | – | – | – | – | – | – | – | – | – | – | 100.00 | 100.00 | 100.00 | 100.00 | 0.89 | 0.48 | 0.77 | –
Cc1ccc(C2CCN(CCCCCCCCCCCCNC(=O)c3cccnc3N)CC2)cc1 [Compound 55, 2-Amino-N-(12-(4-(p-tolyl)piperidin-1-yl)dodecyl) nicotinamide] | – | – | – | – | – | – | – | – | – | – | – | 100.00 | 100.00 | 100.00 | 100.00 | 100.00 | 1.10 | 0.97 | – | –
O=C(NCCCCCCCCCCCCN1CCNCC1)c1ccc(-c2ccccc2)o1 [Compound 90, 5-Phenyl-N-(12-(piperazin-1-yl)dodecyl)furan-2-carboxamide hydrochloride] | 7.19 | 5.94 | 2.48 | 1.94 | -8.27 | -2.03 | 66.2 | 100 | 100 | 100 | – | – | – | – | – | – | – | – | – | –
CN1CCN(C2CCN(CCCCCCCCCCCCNC(=O)c3cccnc3N)CC2)CC1 [Compound 124, 2-Amino-N-(12-(4-(4-methylpiperazin-1-yl)piperidin-1-yl)dodecyl) nicotinamide] | – | – | – | – | – | – | – | – | – | – | 30.43 | 20.00 | 30.00 | 100.00 | 100.00 | 100.00 | 32.10 | 31.72 | 0.00 | 30.70
